Experimental findings from US20250290117A1, “MOLECULAR PHENOTYPIC ANTIMICROBIAL SUSCEPTIBILITY TESTING” (priority 2024, published 2025) are described below.

The test concerns pathogens of clinical samples. Kind of test: Molecular phenotypic antimicrobial susceptibility test of clinical samples, direct PCR without a separate DNA purification step (Table 6). Type of test: cell-based. As for the experimental part:
Detection of Molecular Phenotypic Antimicrobial Susceptibility. Disclosed herein are the methods for the detection of phenotypic antimicrobial susceptibility via molecular methods. The present invention describes how a specimen 100 with a known microbial load is incubated and then exposed to a panel of antimicrobial agents to determine sensitivity (prevention of growth) or resistance (allowance of growth) to the specific antimicrobial agents tested utilizing molecular methods.
Sample Collection. Specimens 100 are collected from patients using sterile collection processes that are employed in routine clinical care. Specimens are transported to the testing facility in boric acid preservative.
Preparation of the Specimens for Testing. […] The process for pathogen isolation includes steps of harvesting the pathogen (e.g., via centrifugation), isolating pathogen DNA via a DNA isolation and/or purification kit, and performing PCR on the pathogen DNA via PCR components (e.g., primers, enzymes, buffers) as would be known to the skilled artisan. […] This aliquot is used for antimicrobial susceptibility testing if indicated based on the pathogen detection results. […] Specimens 100 with lower pathogen loads could also be utilized in the antibiotic susceptibility phase of testing with or without a longer incubation period.
Preparation of Antimicrobial Susceptibility Testing Plates. Antimicrobial solutions are prepared at known concentrations. The specific antimicrobials and their concentrations are selected based on the pathogen of interest and the described antimicrobial resistance breakpoints for that specimen pathogen and antimicrobial combination. These antimicrobials have been selected based on those commonly utilized by healthcare providers in routine clinical care for the specific type of suspected infection. The number and types of antimicrobials utilized can be customized based on the infection source, pathogen detected, patient-specific factors such as allergies or other health conditions (e.g., chronic kidney disease or concurrent medication use), or healthcare provider preferences such as antimicrobial availability or cost.
The antimicrobial solutions are prepared in liquid culture media (such as Muller Hinton Broth) to achieve the desired antimicrobial concentration and are then stored at −80° C. until use. For a given specimen, each antimicrobial is tested at a single or multiple antimicrobial concentration(s) which is its established breakpoints for sensitivity. The antimicrobial solutions are prepared and plated out for each specific pathogen. […] This allows for evaluation of pathogen load when no antimicrobial is present.
Specimen Exposure to Antimicrobial Agents. The 1 mL aliquot of the specimen 100 previously mixed with culture media and incubated is obtained. Using optical density measurements as a guide, the specimen 100 is diluted to 0.5 McFarland.
Antimicrobial exposure plates are typically placed into an incubator for 12-16 hours.
Nucleic Acid Amplification of Antimicrobial Agent Exposed Pathogens. The antimicrobial exposure plate is removed after the period of incubation. The specimen then undergoes a purification or lysis step. For example, the specimen may undergo a purification step (e.g., magnetic bead-based or other separation protocol to isolate genetic material). In another example, the specimen may undergo a cell lysis step. For example, buffer (e.g., lysis buffer) may be added and incubated in the thermal cycler for preparation for direct PCR. Next, the specimen may undergo a polymerase chain reaction (PCR) testing protocol, whereby a semi-quantitative PCR method is utilized. This may be completed either with or without a specific extraction protocol step. The pathogens can be individually targeted and detected, or a universal genetic sequence can be utilized to detect the antimicrobial susceptibility of the specimen as a whole.

Setting [1] is: E. coli, clinical sample of r10-r24.
The mark [2] stands for this setting: E. coli, clinical sample of r10-r24, Ct control avg 12.97.
[3] abbreviates: E. coli, clinical sample of r158-r172.
[4] abbreviates: E. coli, clinical sample of r158-r172, Ct control avg 12.894.
Where [5] appears, read: E. faecalis, clinical sample of r93-r99.
Where [6] appears, read: E. faecalis, clinical sample of r93-r99, Ct control avg 22.011.
Where [7] appears, read: E. faecalis, clinical sample of r100-r106.
Setting [8] is: E. faecalis, clinical sample of r100-r106, Ct control avg 21.027.
The mark [9] stands for this setting: E. faecalis, clinical sample of r107-r113, Ct control avg 20.529.
Setting [10] is: E. faecalis, clinical sample of r114-r120.
The mark [11] stands for this setting: E. faecalis, clinical sample of r114-r120, Ct control avg 20.909.
Where [12] appears, read: E. faecalis, clinical sample of r151-r157, Ct control avg 18.551.
Setting [13] is: K. aerogenes, clinical sample of r136-r150.
Setting [14] is: K. aerogenes, clinical sample of r136-r150, Ct control avg 13.854.
Where [15] appears, read: K. pneumoniae, clinical sample of r121-r135.
Where [16] appears, read: K. pneumoniae, clinical sample of r121-r135, Ct control avg […].
The mark [17] stands for this setting: M. morganii, clinical sample of r55-r69.
Setting [18] is: M. morganii, clinical sample of r55-r69, Ct control avg 12.09.
[19] abbreviates: M. morganii, clinical sample of r70-r84.
[20] abbreviates: M. morganii, clinical sample of r70-r84, Ct control avg 11.677.
Setting [21] is: P. mirabilis, clinical sample of r25-r39.
[22] abbreviates: P. mirabilis, clinical sample of r25-r39, Ct control avg 11.801.
Where [23] appears, read: P. mirabilis, clinical sample of r40-r54.
Setting [24] is: P. mirabilis, clinical sample of r40-r54, Ct control avg 10.06.

Take `CN(C)[C@@H]1C(O)=C(C(N)=O)C(=O)[C@@]2(O)C(O)=C3C(=O)c4c(O)cccc4[C@@](C)(O)[C@H]3C[C@@H]12` [Tetracycline]: the “Molecular Antibiotic Susceptibility Result” value is reported as “Sensitive (Antimicrobial wells with pathogen load detected below the control wells (typically >2 cycle thresholds later) may be reported as Sensitive)” under setting [1]; “Sensitive (Antimicrobial wells with pathogen load detected below the control wells (typically >2 cycle thresholds later) may be reported as Sensitive)” under setting [3]; “Resistant” under setting [5]; “Resistant” under setting [7]; “Resistant” under setting [10]; “Sensitive (Antimicrobial wells with pathogen load detected below the control wells (typically >2 cycle thresholds later) may be reported as Sensitive)” under setting [13]. Also, the “Molecular Antibiotic Susceptibility Result” value is, setting by setting: under setting [15], “Sensitive (Antimicrobial wells with pathogen load detected below the control wells (typically >2 cycle thresholds later) may be reported as Sensitive)”; under setting [17], “Resistant”; under setting [19], “Resistant”; under setting [21], “Resistant”; under setting [23], “Resistant”; (S. aureus, clinical sample of r85-r92) “Resistant”. Also, the Ct was determined as 26.521 under setting [2]; 30.717 under setting [4]; 21.199 under setting [6]; 20.684 under setting [8]; 28.789 under setting [9]; 21.446 under setting [11]. Moreover, the Ct under setting [12] is reported as 21.132; the Ct under setting [14] is 30.787; the Ct under setting [16] was determined as 27.163; the Ct under setting [18] amounted to 9.923; the Ct under setting [20] was found to be 12.206; the Ct under setting [22] is given as 10.301. The Ct by setting is: under setting [24], 11.498; (S. aureus, clinical sample of r85-r92, Ct control avg 20.309) 22.653.

Consider `C[C@@H](O)[C@H]1C(=O)N2C(C(=O)O)=C(S[C@@H]3CN[C@H](C(=O)N(C)C)C3)[C@H](C)[C@H]12` [Meropenem], for which the “Molecular Antibiotic Susceptibility Result” value runs as follows: under setting [1], “Sensitive (Antimicrobial wells with pathogen load detected below the control wells (typically >2 cycle thresholds later) may be reported as Sensitive)”; under setting [3], “Sensitive (Antimicrobial wells with pathogen load detected below the control wells (typically >2 cycle thresholds later) may be reported as Sensitive)”; under setting [13], “Sensitive (Antimicrobial wells with pathogen load detected below the control wells (typically >2 cycle thresholds later) may be reported as Sensitive)”; under setting [15], “Sensitive (Antimicrobial wells with pathogen load detected below the control wells (typically >2 cycle thresholds later) may be reported as Sensitive)”; under setting [17], “Sensitive (Antimicrobial wells with pathogen load detected below the control wells (typically >2 cycle thresholds later) may be reported as Sensitive)”; under setting [19], “Sensitive (Antimicrobial wells with pathogen load detected below the control wells (typically >2 cycle thresholds later) may be reported as Sensitive)”. Also, the “Molecular Antibiotic Susceptibility Result” value by setting is: under setting [21], “Sensitive (Antimicrobial wells with pathogen load detected below the control wells (typically >2 cycle thresholds later) may be reported as Sensitive)”; under setting [23], “Sensitive (Antimicrobial wells with pathogen load detected below the control wells (typically >2 cycle thresholds later) may be reported as Sensitive)”. Besides, the Ct under setting [2] was 24.598; the Ct under setting [4] was determined as 30.093; the Ct under setting [14] was 28.604; the Ct under setting [16] was determined as 26.606; the Ct under setting [18] is given as 30.024; the Ct under setting [20] came to 29.381. In addition, the Ct is, setting by setting: under setting [22], 32.513; under setting [24], 31.805.

On to `C[C@@H]1O[C@@H]1P(=O)(O)O` [Fosfomycin], for which the “Molecular Antibiotic Susceptibility Result” value under setting [1] was “Sensitive (Antimicrobial wells with pathogen load detected below the control wells (typically >2 cycle thresholds later) may be reported as Sensitive)”; the “Molecular Antibiotic Susceptibility Result” value under setting [3] is recorded as “Sensitive (Antimicrobial wells with pathogen load detected below the control wells (typically >2 cycle thresholds later) may be reported as Sensitive)”; the “Molecular Antibiotic Susceptibility Result” value under setting [5] was “Sensitive (Antimicrobial wells with pathogen load detected below the control wells (typically >2 cycle thresholds later) may be reported as Sensitive)”; the “Molecular Antibiotic Susceptibility Result” value under setting [7] is listed as “sensitive”; the “Molecular Antibiotic Susceptibility Result” value (E. faecalis, clinical sample of r107-r113) is on record as “Resistant”; the “Molecular Antibiotic Susceptibility Result” value under setting [10] is “Sensitive (Antimicrobial wells with pathogen load detected below the control wells (typically >2 cycle thresholds later) may be reported as Sensitive)”. For the same molecule, the “Molecular Antibiotic Susceptibility Result” value reads like this: (E. faecalis, clinical sample of r151-r157) “Sensitive (Antimicrobial wells with pathogen load detected below the control wells (typically >2 cycle thresholds later) may be reported as Sensitive)”; under setting [13], “Sensitive (Antimicrobial wells with pathogen load detected below the control wells (typically >2 cycle thresholds later) may be reported as Sensitive)”; under setting [15], “Resistant”; under setting [17], “Sensitive (Antimicrobial wells with pathogen load detected below the control wells (typically >2 cycle thresholds later) may be reported as Sensitive)”; under setting [19], “Sensitive (Antimicrobial wells with pathogen load detected below the control wells (typically >2 cycle thresholds later) may be reported as Sensitive)”; under setting [21], “Sensitive (Antimicrobial wells with pathogen load detected below the control wells (typically >2 cycle thresholds later) may be reported as Sensitive)”. The “Molecular Antibiotic Susceptibility Result” value under setting [23] is given as “Sensitive (Antimicrobial wells with pathogen load detected below the control wells (typically >2 cycle thresholds later) may be reported as Sensitive)”. Besides, the Ct is reported as 25.481 under setting [2]; 27.932 under setting [4]; 30.578 under setting [6]; 33.882 under setting [8]; 19.527 under setting [9]; 27.178 under setting [11]. For the same molecule, the Ct came out at 32.048 under setting [12]; 19.581 under setting [14]; 14.895 under setting [16]; 18.368 under setting [18]; 28.123 under setting [20]; 26.9 under setting [22]. Under setting [24], the Ct is given as 27.935.
